Measured values: US6809065B2, “Herbicide containing substituted pyrazole derivative as active ingredient” (SDS Biotech K.K., priority 2001, dated 2004)

Columns and labels:
soybean (Glycine max) [1] = experiment: Upland soil treatment (Test Example 2), crop; format: in vivo; conditions: soil surface treatment next day after sowing, 1 kg active ingredient per hectare, evaluated 21st day, lower index = higher safety
Excerpt: (§1) In the above evaluation criteria, the term “herbicidal effect” means evaluation to the objective weeds, and a higher index of the evaluation criteria means higher herbicidal effect on the objective weeds. On the other hand, a lower index of the evaluation criteria for the crops means higher safety to the crops. A plastic pot of 130 cm^2 was filled with upland soil. Then, seeds of weeds, namely, Setaria viridis, Digitaria adscendens, Chenopodium album and Stellaria media, and seeds of crops, namely, soybean (Glycine max) and wheat (Triticum aestivum), were sowed and covered with soil of about 1 cm thick. On the next day after the sowing, a wettable powder composition was prepared in accordance with Formulation Example 1, diluted with water in such an amount that the amount of the active ingredient became 1 kg per hectare, and then uniformly applied to the soil surface. On the 21st day after the application, observation and evaluation were carried out according to the aforesaid criteria.

[2] = test system: wheat (Triticum aestivum); experiment: Upland soil treatment (Test Example 2), crop; format: in vivo; conditions: soil surface treatment next day after sowing, 1 kg active ingredient per hectare, evaluated 21st day, lower index = higher safety
Excerpt: as §1

Stellaria media [3] = experiment: Upland soil treatment (Test Example 2); format: in vivo; conditions: soil surface treatment next day after sowing, wettable powder, 1 kg active ingredient per hectare, evaluated 21st day after application
Excerpt: as §1

Digitaria adscendens [4] = experiment: Upland soil treatment (Test Example 2); format: in vivo; conditions: soil surface treatment next day after sowing, wettable powder, 1 kg active ingredient per hectare, evaluated 21st day after application
Excerpt: as §1

Setaria viridis [5] = experiment: Upland soil treatment (Test Example 2); format: in vivo; conditions: soil surface treatment next day after sowing, wettable powder, 1 kg active ingredient per hectare, evaluated 21st day after application
Excerpt: as §1

Chenopodium album [6] = experiment: Upland soil treatment (Test Example 2); format: in vivo; conditions: soil surface treatment next day after sowing, wettable powder, 1 kg active ingredient per hectare, evaluated 21st day after application
Excerpt: as §1

soybean (Glycine max) [7] = experiment: Upland field foliage treatment (Test Example 1), crop; format: in vivo; conditions: foliage treatment 14th day after sowing, 1 kg active ingredient per hectare, evaluated 21st day, lower index = higher safety
Excerpt: (§2) In the above evaluation criteria, the term “herbicidal effect” means evaluation to the objective weeds, and a higher index of the evaluation criteria means higher herbicidal effect on the objective weeds. On the other hand, a lower index of the evaluation criteria for the crops means higher safety to the crops. A plastic pot of 130 cm^2 was filled with upland soil. Then, seeds of weeds, namely, Setaria viridis, Digitaria adscendens, Chenopodium album and Stellaria media, and seeds of crops, namely, soybean (Glycine max) and wheat (Triticum aestivum), were sowed and covered with soil of about 1 cm thick. On the 14th day after the sowing, a wettable powder composition was prepared in accordance with Formulation Example 1, diluted with water in such an amount that the amount of the active ingredient became 1 kg per hectare, and then uniformly applied to the plant leaf surfaces. On the 21st day after the application, observation and evaluation were carried out according to the aforesaid criteria.

[8] = test system: wheat (Triticum aestivum); experiment: as above; format: in vivo; conditions: foliage treatment 14th day after sowing, 1 kg active ingredient per hectare, evaluated 21st day, lower index = higher safety
Excerpt: as §2

Monochoria vaginalis = experiment: Paddy field treatment (Test Example 3); format: in vivo; conditions: paddy pot, submerged 4 cm, dropped on water surface 10th day after transplantation, 1 kg active ingredient per hectare, evaluated 21st day
Procedure: (§3) In the above evaluation criteria, the term “herbicidal effect” means evaluation to the objective weeds, and a higher index of the evaluation criteria means higher herbicidal effect on the objective weeds. On the other hand, a lower index of the evaluation criteria for the crops means higher safety to the crops. A plastic pot of 130 cm^2 was filled with paddy soil, and soil puddling was carried out to adjust the submerged depth to 4 cm. Then, seeds of Echinochloa crusgalli, Monochoria vaginalis, Ammannia multiflora and Scirpus juncoides were sowed, and rice (Oryza […], variety: Koshihikari) of two-leaf period was transplanted by 2 rice plants of 1 stub per pot at a depth of 3 cm. On the 10th day after the transplantation, a wettable powder composition was prepared in accordance with Formulation Example 1, diluted with water in such an amount that the amount of the active ingredient became 1 kg per hectare, and then dropped to diffuse on the water surface. On the 21st day after the dropping, observation and evaluation were carried out according to the aforesaid criteria.

Scirpus juncoides = experiment: Paddy field treatment (Test Example 3); format: in vivo; conditions: paddy pot, submerged 4 cm, dropped on water surface 10th day after transplantation, 1 kg active ingredient per hectare, evaluated 21st day
Procedure: as §3

Ammannia multiflora = experiment: Paddy field treatment (Test Example 3); format: in vivo; conditions: paddy pot, submerged 4 cm, dropped on water surface 10th day after transplantation, 1 kg active ingredient per hectare, evaluated 21st day
Procedure: as §3

Stellaria media [9] = experiment: Upland field foliage treatment (Test Example 1); format: in vivo; conditions: foliage treatment 14th day after sowing, wettable powder, 1 kg active ingredient per hectare, evaluated 21st day after application
Excerpt: as §2

Digitaria adscendens [10] = experiment: Upland field foliage treatment (Test Example 1); format: in vivo; conditions: foliage treatment 14th day after sowing, wettable powder, 1 kg active ingredient per hectare, evaluated 21st day after application
Excerpt: as §2

Setaria viridis [11] = experiment: Upland field foliage treatment (Test Example 1); format: in vivo; conditions: foliage treatment 14th day after sowing, wettable powder, 1 kg active ingredient per hectare, evaluated 21st day after application
Excerpt: as §2

Chenopodium album [12] = experiment: Upland field foliage treatment (Test Example 1); format: in vivo; conditions: foliage treatment 14th day after sowing, wettable powder, 1 kg active ingredient per hectare, evaluated 21st day after application
Excerpt: as §2

[13] = test system: rice (Oryza sative, variety: Koshihikari); experiment: Paddy field treatment (Test Example 3), crop; format: in vivo, Oryza sativa; conditions: transplanted rice two-leaf period, water surface treatment 10th day after transplantation, 1 kg active ingredient per hectare, evaluated 21st day, lower index = higher safety
Procedure: as §3

Echinochloa spp. = experiment: Paddy field treatment (Test Example 3); format: in vivo, Echinochloa crusgalli; conditions: paddy pot, submerged 4 cm, dropped on water surface 10th day after transplantation, 1 kg active ingredient per hectare, evaluated 21st day
Procedure: as §3

SMILES | Herbicidal activity Glycine max (soybean (Glycine max) [1]) | Herbicidal activity Triticum aestivum [2] | Herbicidal activity Stellaria media (Stellaria media [3]) | Herbicidal activity Digitaria adscendens (Digitaria adscendens [4]) | Herbicidal activity Setaria viridis (Setaria viridis [5]) | Herbicidal activity Chenopodium album (Chenopodium album [6]) | Herbicidal activity Glycine max (soybean (Glycine max) [7]) | Herbicidal activity Triticum aestivum [8] | Herbicidal activity Monochoria vaginalis (Monochoria vaginalis) | Herbicidal activity Scirpus juncoides (Scirpus juncoides) | Herbicidal activity Ammannia multiflora (Ammannia multiflora) | Herbicidal activity Stellaria media (Stellaria media [9]) | Herbicidal activity Digitaria adscendens (Digitaria adscendens [10]) | Herbicidal activity Setaria viridis (Setaria viridis [11]) | Herbicidal activity Chenopodium album (Chenopodium album [12]) | Herbicidal activity Oryza sativa [13] | Herbicidal activity Echinochloa spp. (Echinochloa spp.)
COC=C(Cn1cc(Cl)c(-c2cccc(OC)c2)n1)C(=O)OC [Compound 16] | 0 (herbicidal effect of not less than 0% by weight and less than 10% by weight) | 0 (herbicidal effect of not less than 0% by weight and less than 10% by weight) | 5 (herbicidal effect of not less than 90% by weight) | 5 (herbicidal effect of not less than 90% by weight) | 5 (herbicidal effect of not less than 90% by weight) | 4 (herbicidal effect of not less than 70% by weight and less than 90% by weight) | 1 (herbicidal effect of not less than 10% by weight and less than 30% by weight) | 0 (herbicidal effect of not less than 0% by weight and less than 10% by weight) | 5 (herbicidal effect of not less than 90% by weight) | 5 (herbicidal effect of not less than 90% by weight) | 5 (herbicidal effect of not less than 90% by weight) | 5 (herbicidal effect of not less than 90% by weight) | 5 (herbicidal effect of not less than 90% by weight) | 5 (herbicidal effect of not less than 90% by weight) | 5 (herbicidal effect of not less than 90% by weight) | 0 (herbicidal effect of not less than 0% by weight and less than 10% by weight) | 5 (herbicidal effect of not less than 90% by weight)
COC=C(Cn1nc(-c2ccccc2)c(C)c1C)C(=O)OC [Compound 33] | 0 (herbicidal effect of not less than 0% by weight and less than 10% by weight) | 0 (herbicidal effect of not less than 0% by weight and less than 10% by weight) | 4 (herbicidal effect of not less than 70% by weight and less than 90% by weight) | 4 (herbicidal effect of not less than 70% by weight and less than 90% by weight) | 4 (herbicidal effect of not less than 70% by weight and less than 90% by weight) | 4 (herbicidal effect of not less than 70% by weight and less than 90% by weight) | 0 (herbicidal effect of not less than 0% by weight and less than 10% by weight) | 0 (herbicidal effect of not less than 0% by weight and less than 10% by weight) | 5 (herbicidal effect of not less than 90% by weight) | 5 (herbicidal effect of not less than 90% by weight) | 5 (herbicidal effect of not less than 90% by weight) | 5 (herbicidal effect of not less than 90% by weight) | 5 (herbicidal effect of not less than 90% by weight) | 4 (herbicidal effect of not less than 70% by weight and less than 90% by weight) | 5 (herbicidal effect of not less than 90% by weight) | 1 (herbicidal effect of not less than 10% by weight and less than 30% by weight) | 5 (herbicidal effect of not less than 90% by weight)
COC=C(Cn1nc(-c2ccc(Cl)cc2)c(C)c1C)C(=O)OC [Compound 35] | 0 (herbicidal effect of not less than 0% by weight and less than 10% by weight) | 0 (herbicidal effect of not less than 0% by weight and less than 10% by weight) | 4 (herbicidal effect of not less than 70% by weight and less than 90% by weight) | 4 (herbicidal effect of not less than 70% by weight and less than 90% by weight) | 4 (herbicidal effect of not less than 70% by weight and less than 90% by weight) | 4 (herbicidal effect of not less than 70% by weight and less than 90% by weight) | 0 (herbicidal effect of not less than 0% by weight and less than 10% by weight) | 0 (herbicidal effect of not less than 0% by weight and less than 10% by weight) | 4 (herbicidal effect of not less than 70% by weight and less than 90% by weight) | 3 (herbicidal effect of not less than 50% by weight and less than 70% by weight) | 4 (herbicidal effect of not less than 70% by weight and less than 90% by weight) | 4 (herbicidal effect of not less than 70% by weight and less than 90% by weight) | 4 (herbicidal effect of not less than 70% by weight and less than 90% by weight) | 4 (herbicidal effect of not less than 70% by weight and less than 90% by weight) | 4 (herbicidal effect of not less than 70% by weight and less than 90% by weight) | 0 (herbicidal effect of not less than 0% by weight and less than 10% by weight) | 3 (herbicidal effect of not less than 50% by weight and less than 70% by weight)
